Series [1] in a line: Chemical stability in HBSS buffer (pH 7.4) / simulated gastric fluid. It is filed as physicochemical. To be noted: for Percentage remaining: HBSS, 10 μM, 37° C.; for chemical stability: chemical hydrolysis / HBSS buffer. The protocol:
The chemical stability of prodrugs was evaluated using simulated gastric fluid (pH 1.2) and Hanks' Balanced Salt Solution (HBSS) buffer (pH 7.4). Briefly, prodrugs were spiked (10 μM) in respective solutions and incubated at 37° C. for 1 h. At predetermined time points (0, 30 and 60 min), aliquots of 100 μL were removed and diluted with 100 μL of water. Prodrug disappearance was monitored using the developed liquid chromatography and tandem mass spectrometry (LC/MS/MS) method described below.
(§1) For LC/MS/MS, prodrugs were separated with Thermo Scientific Accela UPLC system coupled to Accela open autosampler on an Agilent C18 (100×2.1 mm id) UPLC column. The autosampler was temperature controlled and operating at 10° C. The mobile phase used for the chromatographic separation was composed of acetonitrile/water containing 0.1% formic acid and was run at a flow rate of 0.5 mL/minute for 4.5 minutes using gradient elution. The column effluent was monitored using TSQ Vantage triple-quadrupole mass spectrometric detector, equipped with an electrospray probe set in the positive ionization mode. Samples were introduced into the ionization source through a heated nebulized probe (350° C.).
(§2) For quantification of compound remaining, disappearance of prodrugs was measured from ratio of peak areas of analyte to IS. Percentage remaining was calculated in the following manner: […]

Series [2] in a line: Metabolic stability in mouse plasma. It is filed as in vitro ADME. To be noted: 10 μM, 37° C. The procedure: (§3) For metabolic stability, plasma (mouse, dog, monkey and human) and liver microsomes (mouse, dog, monkey and human) were used. For stability, prodrugs (10 μM) were spiked in each matrix and incubated in an orbital shaker at 37° C. At predetermined times (0, 30 and 60 min), 100 μL aliquots of the mixture in triplicate were removed and the reaction quenched by addition of three times the volume of ice cold acetonitrile spiked with the internal standard (losartan 5 μM). The samples were vortexed for 30 s and centrifuged 12000 g for 10 min. 50 μL supernatant diluted with 50 μL water was transferred to a 250 μL polypropylene vial sealed with a Teflon cap. Prodrug disappearance was monitored over time using a liquid chromatography and tandem mass spectrometry (LC/MS/MS) method as described below.
as §1, §2

Series [3] can be described thus: Metabolic stability in mouse liver microsomes. It counts as in vitro ADME. To be noted: 10 μM, 37° C. The procedure: as §3, §1, §2
(Liver microsomes are a subcellular fraction often used to study metabolism.)

A short description of series [4]: Metabolic stability in mouse liver S9. It is filed as in vitro ADME. To be noted: Mouse S9, 10 μM, 37° C.
Series [5] can be described thus: In vivo pharmacokinetics in mice, peroral, bioanalysis method 1 (total prodrug exposure). To be noted: oral dosing; for permeability in vivo: mice. The protocol: Blood was obtained via cardiac puncture and tissue dissected at 0 min, 15 min, 30 min, 1 h, 2 h, and 4 h post dose (n=3 per time point). Single time point studies were conducted at 30 min (N=3) following dosing. Plasma was harvested from blood by centrifugation. Mean concentration-time data was used for pharmacokinetic (PK) analysis. Non-compartmental-analysis module in WinNonlin® (version 5.3) was used to assess pharmacokinetic parameters. Peak plasma concentrations (Cmax) and time to Cmax (Tmax) were the observed values. Area under the curve (AUC) was calculated by log-linear (p.o.) trapezoidal rule to the end of sample collection (AUClast) and extrapolated to infinity (AUC0-∞) by dividing the last quantifiable concentration by the terminal disposition rate constant (ke). Terminal half-life (t1/2) was estimated from first order kinetics: t1/2=0.693/ke.
Briefly, prior to extraction, frozen samples were thawed on ice. For plasma extraction, 50 μL of the calibration standards or samples were transferred into silanized microcentrifuge tubes. Sample preparation involved a single liquid extraction by addition of 300 μL of methanol as extraction solution with internal standard (i.e., 5 μM of 2-PMSA in methanol), followed by vortexing for 30 s and then centrifugation at 12000 g for 10 min. Supernatant was transferred (˜250 μL) and evaporated to dryness at 40° C. under a gentle stream of nitrogen. The residue was reconstituted with 100 μL of derivatizing agent, n-butanol with 3N HCl, and samples were vortexed. The samples were heated at ˜60 OC in a shaking water bath for 30 min. At the end of 30 min, the derivatized samples were allowed to cool at room temperature and dried again for removal of derivatizing reagent, under a gentle stream of nitrogen. The residue was reconstituted in 100 μL of 30% acetonitrile in water v/v. The samples were vortexed and centrifuged again. ˜80 μL supernatant was transferred to a 250 μL polypropylene vial sealed with a Teflon cap and a volume of 10 μL was injected onto the ultra-performance liquid chromatography (UPLC) instrument for quantitative analysis. Chromatographic analysis was performed using an Accela™ ultra high-performance system consisting of an analytical pump, and an autosampler coupled with TSQ Vantage mass spectrometer (Thermo Fisher Scientific Inc., Waltham Mass.). […] The mobile phase used was composed of 0.1% formic acid in acetonitrile and 0.1% formic acid in H2O with gradient elution, starting with 20% (organic) linearly increasing to 65% up to 2.5 min, maintaining at 65% (2.5-3.5 min) and reequilibrating to 30% by 5 min. The total run time for each analyte was 5.0 min.

Series [6] can be described thus: Metabolic stability in human plasma. It is filed as in vitro ADME. To be noted: 10 μM, 37° C. The procedure:
as §3, §1, §2

Series [7] can be described thus: Metabolic stability in human liver microsomes. It counts as in vitro ADME. To be noted: 10 μM, 37° C. The protocol: as §3, §1, §2

Consider `CCOC(=O)[C@H](Cc1ccccc1)NP(=O)(CC(CCC(=O)OC)C(=O)OC)N[C@@H](Cc1ccccc1)C(=O)OCC` (stereo partly drawn) [Compound 17, Dimethyl 2-((bis(((S)-1-ethoxy-1-oxo-3-phenylpropan-2-yl)amino)phosphoryl)methyl)pentanedioate], for which the Percentage remaining was 100% in series [1] (0 min); 93% in series [1] (30 min); 93% in series [1] (60 min); 100% in series [2] (0 min); 2% in series [2] (30 min); 1% in series [2] (60 min). Moreover, the Percentage remaining in series [3] (0 min) worked out at 100%; in series [3] (30 min) it was 2%; in series [3] (60 min) it was 0.1%; in series [4] (0 min), 100%; in series [4] (30 min), 0%; in series [4] (60 min) it was 0.1%. Besides, in series [1], the “chemical stability” value was “stable in HBSS buffer”.
Regarding `CCCCOC(=O)c1ccccc1OP(=O)(CC(CCC(=O)O)C(=O)OC)Oc1ccccc1C(=O)OCCCC` (stereo not drawn) [Compound 21, 4-({Bis[2-(butoxycarbonyl)phenoxy]phosphoryl}methyl)-5-methoxy-5-oxopentanoic acid], the “permeability in vivo” value in series [5] is listed as “did not show a high permeability in vivo”.
For `COC(=O)C(CCC(=O)O)CP(=O)(O)O` (stereo not drawn) [Compound 9], the “oral availability of prodrug” value in series [5] is listed as “good oral availability”.
For `CC(C)OC(=O)OCOP(=O)(CC(CCC(=O)O)C(=O)OCC(=O)N(C)C)OCOC(=O)OC(C)C` (stereo not drawn) [Compound 25], the Percentage remaining in series [6] (0 min) is on record as 100%; in series [6] (30 min), 109%; in series [6] (60 min) it was 76%; in series [7] (0 min) it was 100%; in series [7] (30 min), 80%; in series [7] (60 min), 61%. In addition, the Percentage remaining is 100% in series [2] (0 min); 0% in series [2] (30 min); 0% in series [2] (60 min); 100% in series [3] (0 min); 49% in series [3] (30 min); 22% in series [3] (60 min).
Regarding `CC(C)OC(=O)OC(C)OP(=O)(CC(CCC(=O)O)C(=O)OCC(=O)N(C)C)OC(C)OC(=O)OC(C)C` (stereo not drawn) [Compound 26], the Percentage remaining in series [6] (0 min) is given as 100%; in series [6] (30 min) it was 98%; in series [6] (60 min) it was 92%; in series [7] (0 min), 100%; in series [7] (30 min) it was 92%; in series [7] (60 min), 81%. The Percentage remaining is reported as 100% in series [2] (0 min); 3% in series [2] (30 min); 1% in series [2] (60 min); 100% in series [3] (0 min); 86% in series [3] (30 min); 68% in series [3] (60 min).
Consider `CCCCOC(=O)c1ccccc1OP(=O)(CC(CCC(=O)OC)C(=O)OC)Oc1ccccc1C(=O)OCCCC` (stereo not drawn) [Compound 16, Dimethyl 2-({bis[2-(butoxycarbonyl)phenoxy]phosphoryl}methyl)pentanedioate], for which the Percentage remaining in series [1] (0 min) is reported as 100%; in series [1] (30 min), 100%; in series [1] (60 min) it was 95%; in series [2] (0 min), 100%; in series [2] (30 min) it was 3%; in series [2] (60 min), 1%. Besides, the Percentage remaining in series [3] (0 min) is 100%; in series [3] (30 min), 3%; in series [3] (60 min), 2%; in series [4] (0 min), 100%; in series [4] (30 min), 1%; in series [4] (60 min) it was 2%. The “chemical stability” value in series [1] is “stable in HBSS buffer”.
As for `CCCCCCCCCCOP(=O)(CC(CCC(=O)O)C(=O)OC)OCCCCCCCCCC` (stereo not drawn) [Compound 22, 4-{[Bis(decyloxy)phosphoryl]methyl}-5-methoxy-5-oxopentanoic acid], in series [5], the “permeability in vivo” value is “did not show a high permeability in vivo”.
As for `COC(=O)C(CCC(=O)O)CP(=O)(OCOC(=O)C(C)(C)C)OCOC(=O)C(C)(C)C` (stereo not drawn) [Compound 8, 4-({Bis[(pivaloyloxy)methoxy]phosphoryl}methyl)-5-methoxy-5-oxopentanoic acid], in series [5], the “oral availability of prodrug” value is recorded as “good oral availability”.
As for `COC(=O)CCC(CP(=O)(OCOC(=O)C(C)(C)C)OCOC(=O)C(C)(C)C)C(=O)OC` (stereo not drawn) [Compound 14], the Percentage remaining in series [1] (0 min) is listed as 100%; in series [1] (30 min), 46%; in series [1] (60 min), 21%; in series [2] (0 min), 100%; in series [2] (30 min) it was 0%; in series [2] (60 min), 0%. Besides, the Percentage remaining in series [3] (0 min) is 100%; in series [3] (30 min) it was 2%; in series [3] (60 min), 0%; in series [4] (0 min), 100%; in series [4] (30 min) it was 1%; in series [4] (60 min), 0%. In addition, in series [1], the “chemical stability” value is recorded as “fall apart easily even in HBSS buffer”. Further, the “permeability in vivo” value in series [5] is reported as “most permeable”.
In the case of `CC(C)(C)C(=O)OCOP(=O)(CC(CCC(=O)O)C(=O)O)OCOC(=O)C(C)(C)C` (stereo not drawn) [Compound 5], in series [1], the “chemical stability” value is listed as “chemical instability”.
Turning to `CC(C)OC(=O)OCOP(=O)(CC(CCC(=O)O)C(=O)O)OCOC(=O)OC(C)C` (stereo not drawn) [Compound 4], the “chemical stability” value in series [1] was “chemical instability”.
As to `COC(=O)CCC(CP(=O)(OCOC(=O)C(C)(C)C)OCOC(=O)C(C)(C)C)C(=O)OCOC(=O)C(C)(C)C` (stereo not drawn) [Compound 11], the “chemical stability” value in series [1] is “sufficient chemical stability”.
As to `CCCCCCCCCCCCCCCCOCCCOP(=O)(CC(CCC(=O)O)C(=O)O)OCCCOCCCCCCCCCCCCCCCC` (stereo not drawn) [Compound 12, 2-((Bis(3-(hexadecyloxy)propoxy)phosphoryl)methyl)pentanedioic acid], the “chemical stability” value in series [1] was “sufficient chemical stability”.

The record behind these values is patent US9988407B2, “Prodrugs of prostate specific membrane antigen (PSMA) inhibitor” (THE JOHNS HOPKINS UNIVERSITY, priority 2014, dated 2018).
